31 compounds from US7678913B2, “Ureas as factor Xa inhibitors” (Portola Pharmaceuticals, Inc., priority 2004, dated 2010) can be followed below.

Bounds are passed on as bounds.

T1 sequence (P00742 235-488 limits assumed): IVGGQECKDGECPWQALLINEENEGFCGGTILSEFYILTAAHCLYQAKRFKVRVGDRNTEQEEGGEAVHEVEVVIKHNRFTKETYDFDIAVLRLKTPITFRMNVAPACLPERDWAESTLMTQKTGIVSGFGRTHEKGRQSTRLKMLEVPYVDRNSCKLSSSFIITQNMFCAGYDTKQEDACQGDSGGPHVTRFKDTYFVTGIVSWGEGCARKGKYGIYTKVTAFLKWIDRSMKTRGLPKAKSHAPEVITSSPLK
T1 sequence (P00742 41-179 partner limits assumed): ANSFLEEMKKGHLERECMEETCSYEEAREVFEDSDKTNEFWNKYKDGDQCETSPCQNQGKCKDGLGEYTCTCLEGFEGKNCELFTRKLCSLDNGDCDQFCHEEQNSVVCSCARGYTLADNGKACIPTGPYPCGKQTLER

This test addresses T1, human plasma protein factor Xa (Homo sapiens, UniProt P00742).
T1 construct: measure proteolytic activity of the enzyme (factor Xa); purchased Haematologic Technologies (Essex Junction, Vt.); host or cells: human plasma
As to the kind of experiment: Factor Xa IC50 determination (cleavage of chromogenic substrate S-2765). Type of test: biochemical. Particulars: fXa 1 nM, S-2765 100 μM, Tris buffered saline pH 7.4, room temperature. An excerpt: This example illustrates methods for evaluating the compounds of the invention, along with results obtained for such assays. The in vitro and in vivo Factor Xa isoform activities of the inventive compounds can be determined by various procedures known in the art, such as a test for their ability to inhibit the activity of the Factor Xa isoform. […] The IC50 value is the concentration (in nM) of the compound required to provide 50% inhibition of Factor Xa isoform.
An in vitro assay for detecting and measuring inhibition activity against Factor Xa is as follows:
• The substrate S-2765 (Z-D-Arg-Gly-Arg-pNA.HCl) was obtained from Diapharma (West Chester, Ohio). Enzyme: • The human plasma protein factor Xa was purchased from Haematologic Technologies (Essex Junction, Vt.). Methods
All assays, which are performed in 96-well microtiter plates, measure proteolytic activity of the enzyme (factor Xa) by following cleavage of paranitroanilide substrate. The assay buffer used for proteolytic assays was Tris buffered saline (20 mM Tris, 150 mM NaCl, 5 mM CaCl2, 0.1% Bovine serum albumin (BSA), 5% Dimethly Sulfoxide (DMSO) pH 7.4). In a 96-well microtiter plate, inhibitor was serially diluted to give a range of concentrations from 0.01 nM to 10 μM (final). Duplicate sets of wells were assayed and control wells without inhibitor were included. Enzyme was added to each well,(fXa concentration=1nM), the plate was shaken for 5 seconds and then incubated for 5 minutes at room temperature. S2765 was added (100 μM final) and the plate was shaken for 5 seconds (final liquid volume in each well was 200 μl). The degree of substrate hydrolysis was measured at 405 nm on a Thermomax plate reader (Molecular Devices, Sunnyvale, Calif.) for 2 minutes. The initial velocities (mOD/min), for each range of inhibitor concentrations, were fitted to a four parameter equation using Softmax data analysis software. The parameter C, derived from the resulting curve-fit, corresponded to the concentration for half maximal inhibition (IC50).
What is called IC50 is the midpoint of a concentration-inhibition curve. Read a low IC50 as inhibition by little substance. `CN1CCN=C1c1ccc(NC(=O)[C@H](NC(=O)Nc2ccc(Cl)cc2)c2ccccc2)cc1` [Example 32, (2R) N-[4-(1-methyl-4,5-dihydro-1H-imidazol-2-yl)phenyl]-2-phenyl-2-(4-chlorophenylaminocarbonylamino)-acetamide] yielded a half-inhibitory concentration (IC50) of no more than 100 nM.

In turn, `CN(C)C(=N)c1ccc(NC(=O)C(NC(=O)Nc2ccc(Cl)cc2)c2ccccc2)c(F)c1` (stereo not shown) [Example 33, N-[4-(dimethylaminoimino)-2-fluorophenyl]-2-phenyl-2-(4-chlorophenylaminocarbonylamino)-acetamide] displayed an IC50 of no more than 100 nM.

In turn, `CCN(C)C(=N)c1ccc(NC(=O)C(NC(=O)Nc2ccc(Cl)cc2)c2ccccc2)c(F)c1` (stereo not shown) [Example 34, N-[4-(N-methyl-N-ethylaminoimino)-2-fluorophenyl]-2-phenyl-2-(4-chlorophenylaminocarbonylamino)-acetamide] displayed an IC50 of no more than 100 nM.

`C=CCN(C)C(=N)c1ccc(NC(=O)C(NC(=O)Nc2ccc(Cl)cc2)c2ccccc2)c(F)c1` (stereo not shown) [Example 35, N-[4-(N-methyl-N-allylaminoimino)-2-fluorophenyl]-2-phenyl-2-(4-chlorophenylaminocarbonylamino)-acetamide] returned an IC50 of no more than 100 nM.

With `C#CCN(C)C(=N)c1ccc(NC(=O)C(NC(=O)Nc2ccc(Cl)cc2)c2ccccc2)c(F)c1` (stereo not shown) [Example 36, N-[4-(N-methyl-N-propargylaminoimino)-2-fluorophenyl]-2-phenyl-2-(4-chlorophenylaminocarbonylamino)-acetamide], the 50% inhibitory concentration (IC50) was no more than 100 nM.

For the compound `CNC(=N)c1ccc(NC(=O)C(NC(=O)Nc2ccc(Cl)cc2)c2ccccc2)c(F)c1` (stereo not shown) [Example 37, N-(4-methylaminoimino-2-fluorophenyl)-2-phenyl-2-(4-chlorophenylamino-carbonylamino)-acetamide], the IC50 was no more than 100 nM.

Consider `N=C(c1ccc(NC(=O)C(NC(=O)Nc2ccc(Cl)cc2)c2ccccc2)c(F)c1)N1CCCC1` (stereo not shown) [Example 38, N-[4-(pyrrolidin-1-ylimino)-2-fluorophenyl]-2-phenyl-2-(4-chlorophenylaminocarbonylamino)-acetamide], for which the half-maximal inhibitory concentration (IC50) is no more than 100 nM.

`N=C(c1ccc(NC(=O)C(NC(=O)Nc2ccc(Cl)cc2)c2ccccc2)c(F)c1)N1CCC1` (stereo not shown) [Example 39] registered a half-maximal inhibitory concentration (IC50) of no more than 100 nM.

`CN1CCN=C1c1ccc(NC(=O)C(NC(=O)Nc2ccc(Br)cc2)c2ccccc2F)cc1` (stereo not shown) [Example 40, N-[4-(1-methyl-4,5-dihydro-1H-imidazol-2-yl)phenyl]-2-(2-fluorophenyl)-2-(4-bromophenylaminocarbonylamino)-acetamide] registered an IC50 of no more than 100 nM.

In the case of `N=C(c1ccc(NC(=O)C(NC(=O)Nc2ccc(Cl)cc2)c2ccccc2F)cc1)N1CCCC1` (stereo not shown) [Example 41], the half-inhibitory concentration (IC50) was no more than 100 nM.

Compound `N=C(c1ccc(NC(=O)C(NC(=O)Nc2ccc(Cl)cc2)c2ccccc2F)cc1)N1CCCCC1` (stereo not shown) [Example 42] gave a concentration for half-maximal inhibition (IC50) of no more than 100 nM.

Compound `CN(C)C(=N)c1ccc(NC(=O)C(NC(=O)Nc2ccc(Cl)cc2)c2ccccc2F)cc1` (stereo not shown) [Example 43, N-[4-(dimethylaminoimino)phenyl]-2-(2-fluorophenyl)-2-(4-chlorophenylaminocarbonylamino)-acetamide] yielded an IC50 of no more than 100 nM.

In the case of `N=C(c1ccc(NC(=O)C(NC(=O)Nc2ccc(Br)cc2)c2ccccc2F)cc1)N1CCCC1` (stereo not shown) [Example 44], the half-maximal inhibitory concentration (IC50) is no more than 100 nM.

In the case of `N=C(c1ccc(NC(=O)C(NC(=O)Nc2ccc(Br)cc2)c2ccccc2F)cc1)N1CCCCC1` (stereo not shown) [Example 45, N-[4-(piperidin-1-ylimino)phenyl]-2-(2-fluorophenyl)-2-(4-bromophenylaminocarbonylamino)-acetamide], the IC50 was no more than 100 nM.

As for `N=C(c1ccc(NC(=O)C(NC(=O)Nc2ccc(Cl)cc2)c2ccccc2F)c(F)c1)N1CCCC1` (stereo not shown) [Example 47], the IC50 was no more than 100 nM.

In turn, `CN(C)NC(=N)c1ccc(NC(=O)C(NC(=O)Nc2ccc(Cl)cc2)c2ccccc2F)c(F)c1` (stereo not shown) [Example 48, N-[4-(2,2-dimethylhydrazinoimino)-2-fluorophenyl]-2-(2-fluorophenyl)-2-(4-chlorophenylaminocarbonylamino)-acetamide] showed a half-inhibitory concentration (IC50) of 100 to 500 nM.

Regarding `O=C(Nc1ccc(Cl)cc1)NC(C(=O)Nc1ccc(-c2ccncc2)cc1)c1ccccc1F` (stereo not shown) [Example 49, N-[4-(pyridin-4-yl)phenyl]-2-(2-fluorophenyl)-2-(4-chlorophenylaminocarbonylamino)-acetamide], the IC50 lay within 100 to 500 nM.

`O=C(Nc1ccc(Cl)cc1)NC(C(=O)Nc1ccc(-c2cc[n+]([O-])cc2)cc1)c1ccccc1F` (stereo not shown) [Example 50, N-[4-(N-oxo-pyridin-4-yl)phenyl]-2-(2-fluorophenyl)-2-(4-chlorophenylaminocarbonylamino)-acetamide]: the IC50 was 100 to 500 nM.

`O=C(Nc1ccc(Cl)cc1)NC(C(=O)Nc1ccc(-c2cccc[n+]2[O-])cc1)c1ccccc1F` (stereo not shown) [Example 51, N-[4-(N-oxo-pyridin-2-yl)phenyl]-2-(2-fluorophenyl)-2-(4-chlorophenylaminocarbonylamino)-acetamide] showed an IC50 of no more than 100 nM.

Compound `O=C(Nc1ccc(Br)cc1)NC(C(=O)Nc1ccc(-c2cccc[n+]2[O-])cc1)c1ccccc1F` (stereo not shown) [Example 52, N-[4-(N-oxo-pyridin-2-yl)phenyl]-2-(2-fluorophenyl)-2-(4-bromophenylaminocarbonylamino)-acetamide] returned an IC50 of no more than 100 nM.

Compound `O=C(Nc1ccc(Cl)cc1)NC(C(=O)NCC1CCNCC1)c1ccccc1F` (stereo not shown) [Example 53, N-(piperidin-4-ylmethyl)-2-(2-fluorophenyl)-2-(4-chlorophenylaminocarbonylamino)-acetamide] showed an IC50 of no less than 500 nM.

The compound `CC(=N)N1CCC(CNC(=O)C(NC(=O)Nc2ccc(Cl)cc2)c2ccccc2F)CC1` (stereo not shown) [Example 54, N-[(N-acetimidyl-piperidin-4-yl)methyl]-2-(2-fluorophenyl)-2-(4-chlorophenylaminocarbonylamino)-acetamide] displayed a half-inhibitory concentration (IC50) of 100 to 500 nM.

Regarding `CN(C)Cc1ccccc1-c1ccc(NC(=O)C(NC(=O)Nc2ccc(Cl)cc2)c2ccccc2F)cc1` (stereo not shown) [Example 55, N-[4-(2-dimethylaminomethyl-phenyl)phenyl]-2-(2-fluorophenyl)-2-(4-chlorophenylaminocarbonylamino)-acetamide], the concentration for half-maximal inhibition (IC50) was no more than 100 nM.

As for `CN(C)Cc1ccccc1-c1ccc(NC(=O)C(NC(=O)Nc2ccc(Cl)cc2)c2ccccc2F)c(F)c1` (stereo not shown) [Example 56, N-[4-(2-dimethylaminomethyl-phenyl)-2-fluorophenyl]-2-(2-fluorophenyl)-2-(4-chlorophenylaminocarbonylamino)-acetamide], the 50% inhibitory concentration (IC50) is no more than 100 nM.

On to `CN(C)Cc1ccccc1-c1ccc(NC(=O)C(NC(=O)Nc2ccc(Br)cc2)c2ccccc2F)c(F)c1` (stereo not shown) [Example 57, N-[4-(2-dimethylaminomethyl-phenyl)-2-fluorophenyl]-2-(2-fluorophenyl)-2-(4-bromophenylaminocarbonylamino)-acetamide], for which the IC50 is no more than 100 nM.

Regarding `CN(C)Cc1nccn1-c1ccc(NC(=O)C(NC(=O)Nc2ccc(Cl)cc2)c2ccccc2F)c(F)c1` (stereo not shown) [Example 58, N-[4-(2-dimethylaminomethyl-imidazol-1-yl)-2-fluorophenyl]-2-(2-fluorophenyl)-2-(4-chlorophenylaminocarbonylamino)-acetamide], the concentration for half-maximal inhibition (IC50) is no more than 100 nM.

Consider `CN1CCN=C1c1ccc(NC(=O)[C@H](CC(=O)OCc2ccccc2)NC(=O)Nc2ccc(Cl)cc2)cc1` [Example 59], for which the concentration for half-maximal inhibition (IC50) is no more than 100 nM.

`CN1CCN=C1c1ccc(NC(=O)[C@H](CC(=O)O)NC(=O)Nc2ccc(Cl)cc2)cc1` [Example 60, (2S) N-[4-(1-methyl-4,5-dihydro-1H-imidazol-2-yl)phenyl]-2-carboxymethyl-2-(4-chlorophenylaminocarbonylamino)-acetamide] gave a concentration for half-maximal inhibition (IC50) of no less than 500 nM.

In turn, `CN1CCN=C1c1ccc(NC(=O)[C@@H](CC(=O)OCc2ccccc2)NC(=O)Nc2ccc(Cl)cc2)cc1` [Example 61, (2R) N-[4-(1-methyl-4,5-dihydro-1H-imidazol-2-yl)phenyl]-2-benzyloxycarbonylmethyl-2-(4-chlorophenylaminocarbonylamino)-acetamide] returned an IC50 of 100 to 500 nM.

Take `CN1CCN=C1c1ccc(NC(=O)[C@@H](CC(=O)O)NC(=O)Nc2ccc(Cl)cc2)cc1` [Example 62, (2R) N-[4-(1-methyl-4,5-dihydro-1H-imidazol-2-yl)phenyl]-2-carboxymethyl-2-(4-chlorophenylaminocarbonylamino)-acetamide]: the IC50 was 100 to 500 nM.

`CN(C)C(=O)CC(NC(=O)Nc1ccc(Cl)cc1)C(=O)Nc1ccc(C2=NCCN2C)cc1` (stereo not shown) [Example 63, N-[4-(1-methyl-4,5-dihydro-1H-imidazol-2-yl)phenyl]-2-dimethylaminocarbonylmethyl-2-(4-chlorophenylaminocarbonylamino)-acetamide] registered a 50% inhibitory concentration (IC50) of no less than 500 nM.
